In US20090291938A1 (TAKEDA PHARMACEUTICAL COMPANY LIMITED, priority 2007, published 2009):

These compounds were tested on HT29 human colorectal adenocarcinoma cell line (assay: cell proliferation assay (Cell Titer-Glo luminescent cell viability assay)). Conditions: HT-29, cell proliferative assay, HT29 cells, 72 hr treatment, values given as ranges, read-out: pIC50 (converted).
Assay type: cell-based
Procedure, shortened: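 Cells grown in DMEM with 10% FBS and exposed to compounds for 72 h. Viability read by CellTiter-Glo luminescence, expressed as percentage of DMSO-treated cells.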

Structure (SMILES)	IC50
C=CCC1CN(C2CCCCC2)c2nc(Nc3ccc(C(=O)N[C@H]4CCN(C)C4)cc3OC)ncc2N(C)C1=O (stereo partly drawn) [Compound 229, 4-(7-allyl-9-cyclohexyl-5-methyl-6-oxo-6,7,8,9-tetrahydro-5H-pyrimido[4,5-b][1,4]diazepin-2-ylamino)-3-methoxy-N-((S)-1-methylpyrrolidin-3-yl)benzamide]	1 to 2.51 nM
C=CCC1CN(C2CCCCC2)c2nc(Nc3ccc(C(=O)N[C@@H]4CCN(C)C4)cc3OC)ncc2N(C)C1=O (stereo partly drawn) [Compound 230, 4-(7-allyl-9-cyclohexyl-5-methyl-6-oxo-6,7,8,9-tetrahydro-5H-pyrimido[4,5-b][1,4]diazepin-2-ylamino)-3-methoxy-N-((R)-1-methylpyrrolidin-3-yl)benzamide]	> 10 nM
C=C(F)CC1CN(C2CCCC2)c2nc(Nc3ccc(C(=O)NC4CCN(C)CC4)cc3OC)ncc2N(C)C1=O (stereo not drawn) [Compound 231, 4-(9-cyclopentyl-7-(2-fluoroallyl)-5-methyl-6-oxo-6,7,8,9-tetrahydro-5H-pyrimido[4,5-b][1,4]diazepin-2-ylamino)-3-methoxy-N-(1-methylpiperidin-4-yl)benzamide]	> 10 nM
C=CC1(C)CN(C2CCCC2)c2nc(Nc3ccc(C(=O)NC4CCN(C)CC4)cc3OC)ncc2N(C)C1=O (stereo not drawn) [Compound 239, 4-(9-cyclopentyl-5,7-dimethyl-6-oxo-7-vinyl-6,7,8,9-tetrahydro-5H-pyrimido[4,5-b][1,4]diazepin-2-ylamino)-3-methoxy-N-(1-methylpiperidin-4-yl)benzamide]	3.16 to 10 nM
C=C[C@]1(C)CN(C2CCCC2)c2nc(Nc3ccc(C(=O)NC4CCN(C)CC4)cc3OC)ncc2N(C)C1=O [Compound 240, (R)-4-(9-cyclopentyl-5,7-dimethyl-6-oxo-7-vinyl-6,7,8,9-tetrahydro-5H-pyrimido[4,5-b][1,4]diazepin-2-ylamino)-3-methoxy-N-(1-methylpiperidin-4-yl)benzamide]	3.16 to 10 nM
C=C[C@@]1(C)CN(C2CCCC2)c2nc(Nc3ccc(C(=O)NC4CCN(C)CC4)cc3OC)ncc2N(C)C1=O [Compound 241, (S)-4-(9-cyclopentyl-5,7-dimethyl-6-oxo-7-vinyl-6,7,8,9-tetrahydro-5H-pyrimido[4,5-b][1,4]diazepin-2-ylamino)-3-methoxy-N-(1-methylpiperidin-4-yl)benzamide]	> 10 nM
C=CC1(C)CN(C2CCCC2)c2nc(Nc3ccc(C(=O)NN4CCN(C)CC4)cc3OC)ncc2N(C)C1=O (stereo not drawn) [Compound 242, 4-(9-cyclopentyl-5,7-dimethyl-6-oxo-7-vinyl-6,7,8,9-tetrahydro-5H-pyrimido[4,5-b][1,4]diazepin-2-ylamino)-3-methoxy-N-(4-methylpiperazin-1-yl)benzamide]	> 10 nM
C=C[C@]1(C)CN(C2CCCC2)c2nc(Nc3ccc(C(=O)NN4CCN(C)CC4)cc3OC)ncc2N(C)C1=O [Compound 243, (R)-4-(9-cyclopentyl-5,7-dimethyl-6-oxo-7-vinyl-6,7,8,9-tetrahydro-5H-pyrimido[4,5-b][1,4]diazepin-2-ylamino)-3-methoxy-N-(4-methylpiperazin-1-yl)benzamide]	< 1 nM
C=C[C@@]1(C)CN(C2CCCC2)c2nc(Nc3ccc(C(=O)NN4CCN(C)CC4)cc3OC)ncc2N(C)C1=O [Compound 244, (S)-4-(9-cyclopentyl-5,7-dimethyl-6-oxo-7-vinyl-6,7,8,9-tetrahydro-5H-pyrimido[4,5-b][1,4]diazepin-2-ylamino)-3-methoxy-N-(4-methylpiperazin-1-yl)benzamide]	> 10 nM
C=CC1(C)CN(C2CCCC2)c2nc(Nc3ccc(C(=O)N[C@@H]4CCCNC4)cc3OC)ncc2N(C)C1=O (stereo partly drawn) [Compound 245, 4-(9-cyclopentyl-5,7-dimethyl-6-oxo-7-vinyl-6,7,8,9-tetrahydro-5H-pyrimido[4,5-b][1,4]diazepin-2-ylamino)-3-methoxy-N-((R)-piperidin-3-yl)benzamide]	3.16 to 10 nM
C=CC1(C)CN(C2CCCC2)c2nc(Nc3ccc(C(=O)N[C@H]4CCCNC4)cc3OC)ncc2N(C)C1=O (stereo partly drawn) [Compound 246, 4-(9-cyclopentyl-5,7-dimethyl-6-oxo-7-vinyl-6,7,8,9-tetrahydro-5H-pyrimido[4,5-b][1,4]diazepin-2-ylamino)-3-methoxy-N-((S)-piperidin-3-yl)benzamide]	1 to 2.51 nM
C=CC1(C)CN(C2CCCC2)c2nc(Nc3ccc(C(=O)NC4CN(C)C4)cc3OC)ncc2N(C)C1=O (stereo not drawn) [Compound 247, 4-(9-cyclopentyl-5,7-dimethyl-6-oxo-7-vinyl-6,7,8,9-tetrahydro-5H-pyrimido[4,5-b][1,4]diazepin-2-ylamino)-3-methoxy-N-(1-methylazetidin-3-yl)benzamide]	3.16 to 10 nM
